The values below come from paper PMC5116268 (Journal of pharmacological and toxicological methods, 2016).

In the assay the test system is GABAA receptor (native mixed population in iCell Neurons). Nature of the assay: automated patch clamp. The assay is classed as cell-based, Homo sapiens. In general terms: The patch-clamp technique gives a direct electrical read-out from membranes.
A word on the EC50: it is the concentration at which the effect is half-maximal. Lower therefore signals greater potency. As to `COc1ccc(-n2nc3c4ccc(OC)cc4[nH]cc-3c2=O)cc1` [CW-04-020], the concentration for a half-maximal effect (EC50) is 230 ± 70 nM.
For `CN1C(=O)CN=C(c2ccccc2)c2cc(Cl)ccc21` [diazepam] the value was 420 ± 120 nM; for `C#Cc1ccc2c(c1)C(c1ccccn1)=NCc1c(C(=O)OCC)ncn1-2` [HZ166], 1560 ± 830 nM.
